# Source: article PMC4901301 (Scientific Reports, 2016)
# Where two headings read alike, the source gives them in different places.
# Tests used:
# Mtb gyrase = Mtb gyrase (Mycobacterium tuberculosis, UniProt P9WG45); experiment: Mtb gyrase supercoiling assay; type: biochemical
# Method: Mtb gyrase supercoiling assays were carried out as described previously.
# Mtb ThyX = Mtb ThyX (Mycobacterium tuberculosis, UniProt P9WG57); experiment: Mtb ThyX tritium release assay; type: biochemical; details: for % of ThyX inhibition at 100 µM: actual measured data; for Ki: read-out: Ki against Mtb ThyX
# Mtb H37Rv [1] = experiment: Resazurin (Alamar Blue) drug susceptibility testing, H37Rv; type: cell-based, Mycobacterium tuberculosis
# Mtb TH 12526 = experiment: Resazurin (Alamar Blue) drug susceptibility testing, TH 12526; type: cell-based, Mycobacterium tuberculosis
# Mtb H37Rv [2] = experiment: Broth microdilution susceptibility of Mtb H37Rv; type: cell-based, Mycobacterium tuberculosis; details: replicating Mtb H37Rv, read-out: MIC90 (µM) against H37Rv
# Mtb = system: Mtb; parameters: method as in earlier work; details: cited from earlier work
# [3] = menadione analogs, 7H9 media with 1% ethanol as a co-solvent, read-out: MIC (H37Rv)
# Sequence of Mtb gyrase (P9WG47 whole entry): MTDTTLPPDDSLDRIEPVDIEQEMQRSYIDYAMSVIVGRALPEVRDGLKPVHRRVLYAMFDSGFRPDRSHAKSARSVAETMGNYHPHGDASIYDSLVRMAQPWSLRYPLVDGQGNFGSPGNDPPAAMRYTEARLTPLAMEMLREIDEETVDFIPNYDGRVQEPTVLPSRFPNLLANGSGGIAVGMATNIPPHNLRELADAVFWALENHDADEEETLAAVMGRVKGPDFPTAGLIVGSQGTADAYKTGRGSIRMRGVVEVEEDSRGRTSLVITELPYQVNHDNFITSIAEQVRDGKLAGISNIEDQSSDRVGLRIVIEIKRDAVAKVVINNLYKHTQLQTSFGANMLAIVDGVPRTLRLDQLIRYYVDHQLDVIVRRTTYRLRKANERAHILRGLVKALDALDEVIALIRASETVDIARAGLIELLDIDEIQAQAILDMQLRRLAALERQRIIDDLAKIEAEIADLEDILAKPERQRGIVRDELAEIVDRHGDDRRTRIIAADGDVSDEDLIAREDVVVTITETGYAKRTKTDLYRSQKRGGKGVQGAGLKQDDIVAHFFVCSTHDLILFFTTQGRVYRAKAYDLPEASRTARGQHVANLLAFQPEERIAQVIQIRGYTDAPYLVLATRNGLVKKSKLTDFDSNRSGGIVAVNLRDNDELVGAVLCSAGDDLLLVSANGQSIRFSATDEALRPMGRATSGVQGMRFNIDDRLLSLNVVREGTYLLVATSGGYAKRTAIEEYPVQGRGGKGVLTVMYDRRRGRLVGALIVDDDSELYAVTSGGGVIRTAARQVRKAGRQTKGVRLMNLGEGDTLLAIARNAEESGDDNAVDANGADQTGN
# Sequence of Mtb gyrase (P9WG45 whole entry): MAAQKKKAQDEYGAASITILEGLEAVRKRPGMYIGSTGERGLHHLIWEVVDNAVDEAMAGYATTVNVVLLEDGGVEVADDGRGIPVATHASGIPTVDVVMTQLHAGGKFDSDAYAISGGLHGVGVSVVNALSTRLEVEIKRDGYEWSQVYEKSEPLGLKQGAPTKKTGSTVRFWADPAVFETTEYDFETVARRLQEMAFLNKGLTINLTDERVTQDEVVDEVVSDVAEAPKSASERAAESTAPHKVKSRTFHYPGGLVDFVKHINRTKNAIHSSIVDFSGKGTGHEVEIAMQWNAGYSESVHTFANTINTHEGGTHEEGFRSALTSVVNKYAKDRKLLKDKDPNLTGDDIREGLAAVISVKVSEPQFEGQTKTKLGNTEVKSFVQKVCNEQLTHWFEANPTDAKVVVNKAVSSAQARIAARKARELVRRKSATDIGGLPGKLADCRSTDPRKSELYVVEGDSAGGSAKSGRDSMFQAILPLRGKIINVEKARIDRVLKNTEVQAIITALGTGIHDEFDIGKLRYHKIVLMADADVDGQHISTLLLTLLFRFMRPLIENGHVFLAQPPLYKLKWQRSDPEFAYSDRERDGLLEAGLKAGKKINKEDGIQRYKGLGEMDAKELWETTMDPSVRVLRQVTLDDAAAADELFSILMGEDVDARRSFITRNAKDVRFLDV
# Sequence of Mtb ThyX (P9WG57 whole entry): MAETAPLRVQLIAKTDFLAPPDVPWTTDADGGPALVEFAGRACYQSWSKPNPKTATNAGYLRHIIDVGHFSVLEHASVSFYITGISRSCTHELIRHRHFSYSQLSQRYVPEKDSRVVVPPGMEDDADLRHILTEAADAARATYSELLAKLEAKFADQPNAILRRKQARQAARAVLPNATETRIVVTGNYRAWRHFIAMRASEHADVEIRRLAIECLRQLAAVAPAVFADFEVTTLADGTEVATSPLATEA
compound,measurement,setting,value
CCOCCOC(=O)COc1ccc2c(-c3ccccc3)cc(=O)oc2c1 [2-ethoxyethyl [(2-oxo-4-phenyl-2H-chromen-7-yl)oxy]acetate],Activity against gyrase at 100 uM,Mtb gyrase,no activity
"Cc1cc(O)c2c(c1)C(=O)C=CC2=O [7-methyljuglone, reference compound]",Activity against Mtb ThyX (in words),Mtb ThyX,active
same,IC50,Mtb ThyX,35 µM
same,Activity against Mtb gyrase (in words),Mtb gyrase,active
same,IC50,Mtb gyrase,30 µM
O=C1C(Br)=CC(=O)c2c(O)cccc21 [Compound 2E04],Activity against Mtb ThyX (in words),Mtb ThyX,inhibit
same,IC50,Mtb ThyX,5 µM
same,Activity against Mtb gyrase (in words),Mtb gyrase,inactive
same,IC50,Mtb gyrase,> 50 µM
O=C1C(O)=C(Cc2ccc(-c3ccc(Cl)cc3)cc2)C(=O)c2ccccc21 [Compound 007B],% of ThyX inhibition at 100 µM,Mtb ThyX,21%
same,MIC,"Mtb H37Rv [1]; H37Rv, read-out: MIC",20.8 µM
same,MIC,"Mtb TH 12526; TH 12526, read-out: MIC",41.7 µM
O=C1C(O)=C(Cc2ccc(OC(F)(F)F)cc2)C(=O)c2ccccc21 [Compound 007C],% of ThyX inhibition at 100 µM,Mtb ThyX,78%
same,MIC,"Mtb H37Rv [1]; H37Rv, read-out: MIC",89.7 µM
same,MIC,"Mtb TH 12526; TH 12526, read-out: MIC",44.9 µM
CC(C)Oc1ccc(CC2=C(O)C(=O)c3ccccc3C2=O)cc1 [Compound 007D],% of ThyX inhibition at 100 µM,Mtb ThyX,71%
same,MIC,Mtb H37Rv [1]; read-out: MIC,96.9 µM
same,MIC,"Mtb TH 12526; TH 12526, read-out: MIC",96.9 µM
O=C1C(O)=C(Cc2ccc(C(F)(F)F)cc2)C(=O)c2ccccc21 [Compound 007F],% of ThyX inhibition at 100 µM,Mtb ThyX,74%
same,MIC,Mtb H37Rv [1]; read-out: MIC,94.1 µM
same,MIC,"Mtb TH 12526; TH 12526, read-out: MIC",47.0 µM
O=C1C(O)=C(Cc2ccc(Oc3ccccc3)cc2)C(=O)c2ccccc21 [Compound 007G],% of ThyX inhibition at 100 µM,Mtb ThyX,89%
same,MIC,Mtb H37Rv [1]; read-out: MIC,175.5 µM
same,MIC,"Mtb TH 12526; TH 12526, read-out: MIC",87.8 µM
O=C1C(O)=C(Cc2ccc(Cl)cc2)C(=O)c2ccccc21 [Compound 010A],% of ThyX inhibition at 100 µM,Mtb ThyX,64%
same,MIC,Mtb H37Rv [1]; read-out: MIC,52.3 µM
same,MIC,"Mtb TH 12526; TH 12526, read-out: MIC",52.3 µM
O=C1C(O)=C(Cc2cc(F)cc(F)c2)C(=O)c2ccccc21 [Compound 010B],% of ThyX inhibition at 100 µM,Mtb ThyX,68%
same,MIC,Mtb H37Rv [1]; read-out: MIC,104.1 µM
same,MIC,"Mtb TH 12526; TH 12526, read-out: MIC",104.1 µM
O=C1C(O)=C(Cc2ccco2)C(=O)c2ccccc21 [Compound 010C],% of ThyX inhibition at 100 µM,Mtb ThyX,60%
same,MIC,Mtb H37Rv [1]; read-out: MIC,176.5 µM
same,MIC,"Mtb TH 12526; TH 12526, read-out: MIC",176.5 µM
O=C1C(O)=C(Cc2cccs2)C(=O)c2ccccc21 [Compound 010D],% of ThyX inhibition at 100 µM,Mtb ThyX,42%
same,MIC,Mtb H37Rv [1]; read-out: MIC,231.2 µM
same,MIC,"Mtb TH 12526; TH 12526, read-out: MIC",231.2 µM
O=C1C(O)=C(Cc2ccc(F)c(C(F)(F)F)c2)C(=O)c2ccccc21 [Compound 010E],% of ThyX inhibition at 100 µM,Mtb ThyX,32%
same,MIC,Mtb H37Rv [1]; read-out: MIC,22.3 µM
same,MIC,"Mtb TH 12526; TH 12526, read-out: MIC",22.3 µM
O=C1C(O)=C(Cc2ccc(F)c(Cl)c2)C(=O)c2ccccc21 [Compound 010F],% of ThyX inhibition at 100 µM,Mtb ThyX,73%
same,MIC,Mtb H37Rv [1]; read-out: MIC,197.3 µM
same,MIC,"Mtb TH 12526; TH 12526, read-out: MIC",98.7 µM
COc1cc(CC2=C(O)C(=O)c3ccccc3C2=O)ccc1O [Compound 010H],% of ThyX inhibition at 100 µM,Mtb ThyX,41%
same,MIC,Mtb H37Rv [1]; read-out: MIC,201.4 µM
same,MIC,"Mtb TH 12526; TH 12526, read-out: MIC",201.4 µM
CCCCC1=C(O)C(=O)c2ccccc2C1=O [Compound 010I],% of ThyX inhibition at 100 µM,Mtb ThyX,58%
same,MIC,Mtb H37Rv [1]; read-out: MIC,135.7 µM
same,MIC,"Mtb TH 12526; TH 12526, read-out: MIC",67.8 µM
COc1ccc(CC2=C(O)C(=O)c3ccccc3C2=O)cc1OC [Compound 010K],% of ThyX inhibition at 100 µM,Mtb ThyX,42%
same,MIC,Mtb H37Rv [1]; read-out: MIC,192.7 µM
same,MIC,"Mtb TH 12526; TH 12526, read-out: MIC",48.2 µM
"CCOC(=O)C1=C(c2ccc(C)cc2)C(=O)c2ccccc2C1=O [Compound B6, ethyl 3-(4-methylphenyl)-1,4-dioxonaphtalene-2-carboxylate]",Ki,Mtb ThyX; from dose response curves versus ThyX,4.5 µM
same,MIC90,Mtb H37Rv [2]; Mycobacterium tuberculosis,62.5 µM
COc1ccc(CC2=C(O)C(=O)c3ccccc3C2=O)cc1 [Compound C8-C1],Activity against Mtb ThyX (in words),Mtb ThyX,inhibit
same,IC50,Mtb ThyX,4.5 µM
same,Activity against Mtb gyrase (in words),Mtb gyrase,inactive
same,IC50 gyrase,Mtb gyrase,No inhibition
O=C1C=C(Cc2ccc(F)cc2)C(=O)c2ccccc21 [Compound D4],MIC90,Mtb H37Rv [2],31.2 µM
COc1ccc(CC2=CC(=O)c3ccccc3C2=O)cc1 [Compound D5],MIC90,Mtb H37Rv [2],62.5 µM
"CS(=O)(=O)N1CCN(C2=C(Cl)C(=O)c3ccccc3C2=O)CC1 [Compound E1, 2-chloro-3-(4-methanesulfonylpiperazin-1-yl)-1,4-dihydronaphthalene-1,4-dione]",MIC90,Mtb H37Rv [2]; Mycobacterium tuberculosis,62.5 µM
CC(=O)N(C1=C(Cl)C(=O)c2ccccc2C1=O)c1cccc(F)c1 [Compound E10],MIC90,Mtb H37Rv [2],31.2 µM
O=C1C(Cl)=C(N2CCN(C(=O)c3ccc(F)cc3)CC2)C(=O)c2ccccc21 [Compound F1],MIC90,Mtb H37Rv [2],31.2 µM
CCS(=O)(=O)N1CCN(C2=C(Cl)C(=O)c3ccccc3C2=O)CC1 [Compound F2],MIC90,Mtb H37Rv [2],31.2 µM
"Cc1cc(O)c2c(c1)C(=O)C(c1c(C)cc3c(c1O)C(=O)C=CC3=O)=CC2=O [Diospyrin, reference compound]",IC50 ThyX,Mtb ThyX,No inhibition
same,Activity against Mtb gyrase (in words),Mtb gyrase,inhibits
same,IC50,Mtb gyrase,15 µM
"NNC(=O)c1ccncc1 [INH, isoniazid, reference compound]",MIC,"Mtb H37Rv [1]; Mycobacterium tuberculosis, H37RV, read-out: MIC",< 0.91 µM
same,MIC,"Mtb TH 12526; Mycobacterium tuberculosis, TH12526, TH 12526, read-out: MIC",< 0.91 µM
same,MIC,Mtb,0.25 µg/mL
"COC1=C(OC)C(=O)C(CCCCCCCCCCO)=C(C)C1=O [Idebenone, idebenone, reference compound]",Ki,"Mtb ThyX; uncompetitive with respect to dUMP, converted from measured IC50",3.3 µM
same,Mode of inhibition of Mtb ThyX,Mtb ThyX; with respect to dUMP,uncompetitive
same,MIC90,Mtb H37Rv [2]; Mycobacterium tuberculosis,125 µM
same,MIC90,Mtb H37Rv [2],125 µM
"Cc1cc2c(c(O)c1-c1c(C)cc(O)c3c1C(=O)C=CC3=O)C(=O)C=CC2=O [Isodiospyrin, reference compound]",IC50,Mtb gyrase,100 µM
"CC(C)=CCC/C(C)=C/CC/C(C)=C/CC/C(C)=C/CC/C(C)=C/CC/C(C)=C/CC/C(C)=C/CC/C(C)=C/CC/C(C)=C/CC1=C(C)C(=O)c2ccccc2C1=O [MK-9, reference compound]",MIC,Mtb H37Rv [1]; [3],> 6.4 µM
"CC1(S(=O)(=O)[O-])CC(=O)c2ccccc2C1=O.[Na+] (stereo not shown) [Menadione Bisulfate, reference compound]",MIC,Mtb H37Rv [1]; [3],311.3 µM
"CC1=CC(=O)c2ccccc2C1=O [Menadione, reference compound]",Activity against Mtb gyrase (in words),Mtb gyrase,inactive
same,MIC,"Mtb H37Rv [1]; Mycobacterium tuberculosis, H37RV, menadione analogs, 7H9 media with 1% ethanol as a co-solvent, read-out: MIC (H37Rv)",98.8 µM
"Cc1cc(O)c2c(c1)C(=O)C=C(c1c(C)cc(O)c3c1C(=O)C=CC3=O)C2=O [Neodiospyrin, reference compound]",IC50,Mtb ThyX,20 µM
same,IC50,Mtb gyrase,50 µM
"CO[C@H]1/C=C/O[C@@]2(C)Oc3c(C)c(O)c4c(O)c(c(/C=N/N5CCN(C)CC5)c(O)c4c3C2=O)NC(=O)/C(C)=C\C=C\[C@H](C)[C@H](O)[C@@H](C)[C@@H](O)[C@@H](C)[C@H](OC(C)=O)[C@@H]1C [RMP, rifampicin, reference compound]",MIC,"Mtb TH 12526; Mycobacterium tuberculosis, TH12526",< 0.3 µM
same,MIC,Mtb,0.5 µg/mL
CCCCc1cc(=O)oc2cc(OCC(=O)OCc3ccccc3)c(Cl)cc12 [benzyl [(4-butyl-6-chloro-2-oxo-2H-chromen-7-yl)oxy]acetate],Activity against gyrase at 100 uM,Mtb gyrase,no activity
CCOC(=O)COc1cc2oc(=O)cc(CC)c2cc1Cl [ethyl [(6-chloro-4-ethyl-2-oxo-2H-chromen-7-yl)oxy]acetate],Activity against gyrase at 100 uM,Mtb gyrase,no activity
COC(=O)COc1cc2oc(=O)cc(-c3ccccc3)c2cc1Cl [methyl [(6-chloro-2-oxo-4-phenyl-2H-chromen-7-yl)oxy]acetate],Activity against gyrase at 100 uM,Mtb gyrase,no activity
CCCc1cc(=O)oc2cc(OCC(=O)OC)c(Cl)cc12 [methyl [(6-chloro-2-oxo-4-propyl-2H-chromen-7-yl)oxy]acetate],Activity against gyrase at 100 uM,Mtb gyrase,no activity
CCc1cc2c(=O)c(-c3ccc(OC)cc3)coc2cc1OCC(=O)OC [methyl {[6-ethyl-3-(4-methoxyphenyl)-4-oxo-4H-chromen-7-yl]oxy}acetate],Activity against gyrase at 100 uM,Mtb gyrase,no activity
C=CCOC(=O)COc1cc2oc(=O)c(Cc3ccccc3)c(C)c2cc1Cl [prop-2-en-1-yl 2-[(3-benzyl-6-chloro-4-methyl-2-oxo-2H-chromen-7-yl)oxy]acetate],Activity against gyrase at 100 uM,Mtb gyrase,no activity
